According to patent publication US20230000943A1, “METHOD OF INDUCING SYNAPTOGENESIS BY ADMINISTERING ANGIOTENSIN AND ANALOGUES THEREOF” (Synaptogenix, Inc., priority 2021, published 2023):
Where two headings read alike, the source gives them in different places.

Tests used:
[1] = system: squamous cell carcinoma and melanoma; conditions: used topically; cited from earlier work
PSD-95 = assay: Mouse dosing study: PSD-95 levels; type: in vivo, mice; conditions: 25 μg/m^2 i.v. once per week, after three weeks
Excerpt: (§1) Mouse studies may be performed using an angiotensin, as described above, in accordance with the protocol described below. The following metrics may be used to evaluate dosing regimens: induction of brain postsynaptic anchoring protein PSD-95, upregulation of BDNF levels in brain, upregulation of HGF levels in brain, minimal downregulation of PKC-ε levels, and elevation of brain and plasma concentrations of the angiotensin. Groups of 2-3 mice may be formed and housed in an approved research animal facility. Water may be given ad libitum. A first study involves three groups of mice with animals in each group dosed weekly for 1, 2, 3, or 6 consecutive weeks. Each group has its own control group containing the same number of mice. For example, mice in the first, second and third groups may receive an intravenous (i.v.) injection of 10 μg/m^2, 15 μg/m^2, and 25 μg/m^2 dose of an angiotensin. For each dose, mice in that group may receive a single injection of the angiotensin weekly for a predetermined number of consecutive weeks. Following dosing, mice are sacrificed, and the blood and brain of each animal is collected for further analysis.

[2] = parameters: species or system mice; conditions: mouse, in vivo, iv
Excerpt: as §1

BDNF = assay: Mouse dosing study: brain BDNF levels; type: in vivo; conditions: mice
Excerpt: as §1

protein kinase C = conditions: specifically the (−)-enantiomer; read-out: potency (EC50); cited from earlier work
PKC [3] = conditions: cited from earlier work
NCI 60 cell line = NCI 60 cell line screen; cited from earlier work
PKC [4] = conditions: competes with [3H] phorbol dibutyrate; read-out: Ki for binding to PKC; cited from earlier work
[5] = A-ring bryologs, read-out: affinity for PKC

C/C=C(/C)C(=O)O[C@H]1C(C)=C[C@]23C(=O)[C@@H](C=C(CO)[C@@H](O)[C@]12O)[C@H]1[C@@H](C[C@H]3C)C1(C)C [Ingenol-3-angelate]
antitumor activity [1]: exhibits antitumor activity

angiotensin
PSD-95 in brain and blood samples (PSD-95): higher amounts of PSD-95 | concentration in brain relative to plasma [2]: less than its concentration in plasma | crossing of the blood-brain-barrier [2]: crosses the BBB | brain BDNF levels (BDNF; 15 μg/m^2 for three consecutive weeks): some increase | brain BDNF levels (BDNF; 25 μg/m^2): maximum increase | brain BDNF levels (BDNF; 25 μg/m^2, 3 on/3 off/3 on regimen): remain elevated | brain BDNF levels (BDNF; after three consecutive weekly doses at 25 μg/m^2): highest level

CCCCCCCCc1ccc2c3c(c[nH]c13)C[C@@H](CO)NC(=O)[C@H](C(C)C)N2C [octylindolactam V, Octylindolactam V]
EC50 (protein kinase C): 29 nM

CCCCCCCC(=O)OC1C(=CC(=O)OC)CC2CC(CO)OC(=O)CC(O)CCOC(CCCc3ccc(Br)cc3)CC3CCOC(C=CC(C)(C)C1(O)O2)O3 (stereo not shown) [bryolog 5]
Ki (PKC [3]; [5]): 1.9 nM

CCCCCCCC(=O)OC1C(=CC(=O)OC)CC2CC(CO)OC(=O)CC(O)CCOC(C(C)(C)C)CC3CCOC(C=CC(C)(C)C1(O)O2)O3 (stereo not shown) [bryolog 3]
Ki (PKC [3]; [5]): 6.5 nM

CC1=CC[C@H](C)C(C)(C)[C@@H]1/C=C/C(C)=C/CC[C@@]1(CO)[C@H](CCCO)/C(=C(/C)C=O)CC[C@]1(C)O [Iripallidal]
GI50 (concentration required to inhibit growth by 50%) (NCI 60 cell line): micromolar to nanomolar range

CC1=C[C@]23C(=O)[C@@H](C=C(COC(=O)c4ccccc4)[C@@H](O)[C@]2(O)[C@H]1OC(=O)c1ccccc1)[C@H]1[C@@H](C[C@H]3C)C1(C)C [Ingenol 3,20-dibenzoate]
Ki (PKC [4]): 240 nM

CCCCCCCC(=O)OC1C(=CC(=O)OC)CC2CC(CO)OC(=O)CC(O)CCOC(c3ccccc3)CC3CCOC(C=CC(C)(C)C1(O)O2)O3 (stereo not shown) [bryolog 4]
Ki (PKC [3]; [5]): 2.3 nM

CCCCCCCC(=O)O[C@H]1/C(=C/C(=O)OC)CC2C[C@H](CO)OC(=O)C[C@H](O)C[C@@H]3CCC[C@H](C[C@@H]4CCO[C@H](/C=C/C(C)(C)[C@]1(O)O2)O4)O3 [Analog 1]
Ki (PKC [3]; Table 1 Bryologs, read-out: PKC Affin): 0.25 nM | affinity for PKC (in words) (PKC [3]; compared with Bryostatin-1 and the other bryologs): highest affinity for PKC
